Data as given in US20250282736A1, “SMALL MOLECULE MODULATORS OF HUMAN PREGNANE X RECEPTOR” (ST. JUDE CHILDREN'S RESEARCH HOSPITAL, priority 2022, published 2025).
Read-outs that look alike come from different tables or passages of the source.

What was measured:
hPXR [1] = biological target: T1, hPXR (Homo sapiens (Human), UniProt O75469); assay: cell-based hPXR antagonistic assay; details: for inhibition at 10 µM: read-out: Antagonist (% inhibition at 10 μM)
hPXR [2] = biological target: T1, hPXR; assay: cell-based hPXR inverse agonistic assay; details: for inhibition at 10 µM: read-out: Inverse agonist (% inhibition at 10 μM)
hPXR [3] = biological target: T1, hPXR; assay: cell-based hPXR agonistic assay; details: for Agonist (% activation at 10 μM): rifampicin at 10 μM as 100% activation, DMSO (0.3%) as 0%
hPXR [4] = biological target: T1, hPXR; assay: hPXR binding assay; details: for inhibition at 10 µM: read-out: Binding (% inhibition at 10 μM)
[5] = read-out: Binding (IC50/μM), hPXR binding assay

T1 sequence (O75469 whole entry): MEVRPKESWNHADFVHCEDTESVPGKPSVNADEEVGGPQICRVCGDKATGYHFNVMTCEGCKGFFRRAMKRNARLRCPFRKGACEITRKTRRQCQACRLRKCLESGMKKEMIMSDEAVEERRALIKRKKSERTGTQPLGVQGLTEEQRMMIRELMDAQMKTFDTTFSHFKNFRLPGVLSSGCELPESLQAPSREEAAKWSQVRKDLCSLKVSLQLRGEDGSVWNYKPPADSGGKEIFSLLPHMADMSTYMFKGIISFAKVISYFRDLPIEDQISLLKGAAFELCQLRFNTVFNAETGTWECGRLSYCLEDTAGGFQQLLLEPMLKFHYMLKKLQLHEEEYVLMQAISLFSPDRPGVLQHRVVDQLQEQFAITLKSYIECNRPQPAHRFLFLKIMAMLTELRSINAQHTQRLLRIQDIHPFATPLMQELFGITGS

Row | IC50 (hPXR [1]) [nM] | IC50 (hPXR [2]) [nM] | EC50 (hPXR [3]) [µM] | inhibition at 10 µM (hPXR [4]) [%] | IC50 (hPXR [4]; [5]) [µM] | inhibition at 10 µM (hPXR [1]) [%] | inhibition at 10 µM (hPXR [2]) [%] | Agonist (% activation at 10 μM) (hPXR [3]) | IC50 (hPXR [4]) [µM] | EC50 (hPXR [3]; read-out: Agonist (EC50/μM), cell-based hPXR agonistic assay) [µM] | SMILES
1 | > 30000 | > 30000 | > 30 | 36 | 12.6 ± 3.09 |  |  |  |  |  | CCOc1cc(NC(=O)c2nnn(-c3cc(OC)ccc3OC)c2C)nc(OCC)n1 [A18]
2 | 7050 ± 3480 | 18900 ± 3740 | > 30 | 57 | 5.62 ± 0.49 | 79 | 47 |  |  |  | COc1ccc(C)cc1-n1nnc(C(=O)Nc2cc(N)cc(C(C)(C)C)c2)c1C [G5, N-(3-amino-5-(tert-butyl)phenyl)-1-(2-methoxy-5-methylphenyl)-5-methyl-1H-1,2,3-triazole-4-carboxamide]
3 | 2480 | 430 ± 140 | > 30 | 68 | 0.5 ± 0.12 | 86 | 95 |  |  |  | COc1ccc(OC)c(-n2nnc(C(=O)Nc3cc(C(C)(C)C)ccc3OCCCCCCCCI)c2C)c1 [B19]
4 | 640 ± 100 | 200 | > 30 | 57 | 0.53 | 109 | 115 |  |  |  | COc1cc(NC(=O)c2nnn(-c3cc(C)ccc3OC)c2C)cc(C(C)(C)C)c1 [G8]
5 | > 30000 | > 30000 | 1.45 ± 0.25 | 24 | 0.39 ± 0.19 |  |  | (103 ± 5)% |  |  | COc1ccc(OC)c(-n2nnc(NC(=O)Nc3cccc(C(C)(C)C)c3)c2C)c1 [K4]
6 | > 30000 | > 30000 | 24.5 ± 4.76 |  |  |  |  | (33 ± 2)% | > 30 |  | COc1ccc(OC)c(-n2nnc(C(=O)Nc3ccccc3)c2C)c1 [A1, 1-(2,5-dimethoxyphenyl)-5-methyl-N-phenyl-1H-1,2,3-triazole-4-carboxamide]
7 | 190 | 32 ± 7 | > 30 | 25 | 0.024 | 107 | 116 |  |  |  | C#CCCCOc1cc(NC(=O)c2nnn(-c3cc(OC)ccc3OC)c2C)cc(C(C)(C)C)c1 [D19]
8 | 49 ± 10 | 7.4 | > 30 | 88 | 0.021 ± 0.005 | 107 | 119 |  |  |  | COc1ccc(OC)c(-n2nnc(C(=O)Nc3cc(C(C)(C)C)ccc3OC(C)C)c2C)c1 [B12]
9 | 6.9 ± 0.5 | 1.1 ± 0.5 | > 30 | 93 | 0.015 ± 0.003 | 105 | 165 |  |  |  | CCC[C@H](CC)Oc1ccc(C(C)(C)C)cc1NC(=O)c1nnn(-c2cc(OC)ccc2OC)c1C [M1, (S)—N-(5-(Tert-Butyl)-2-(Hexan-3-yloxy)Phenyl)-1-(2,5-Dimethoxyphenyl)-5-Methyl-1H-1,2,3-Triazole-4-Carboxamide]
10 | > 30000 | > 30000 |  |  |  |  |  | (43 ± 8)% | > 30 | 4.61 ± 1.18 | CCCCOc1ccc(C(C)(C)C)cc1NC(=O)c1nnn(-c2ccc3c(c2)OCO3)c1C [H18]
11 | > 30000 | > 30000 | > 30 | 84 | 2.33 ± 0.43 |  |  |  |  |  | COc1ccc(OC)c(-n2nnc(C(=O)Nc3cc(C(C)(C)C)ccc3O)c2C)c1 [B2, N-(5-(tert-butyl)-2-hydroxyphenyl)-1-(2,5-dimethoxyphenyl)-5-methyl-1H-1,2,3-triazole-4-carboxamide]
12 | 930 ± 110 | 480 | > 30 | 75 | 1.93 ± 0.3 | 108 | 115 |  |  |  | COc1ccc(C)cc1-n1nnc(C(=O)Nc2ccc(O)c(C(C)(C)C)c2)c1C [G2, N-(3-(tert-butyl)-4-hydroxyphenyl)-1-(2-methoxy-5-methylphenyl)-5-methyl-1H-1,2,3-triazole-4-carboxamide]
13 | > 30000 | > 30000 | 2.44 ± 1.02 | 22 | 14 ± 4.79 |  |  | (32 ± 7)% |  |  | COc1ccc(OC)c(-n2nnc(C(=O)Nc3ccc(C)cc3)c2C)c1 [A2]
14 | 23 ± 3 | 4.4 ± 1.5 | > 30 | 92 | 0.02 ± 0.005 | 104 | 92 |  |  |  | CCC[C@H](CC)Oc1ccc(C(C)(C)C)cc1NC(=O)c1nnn(-c2cc(OC)c(F)cc2OC)c1C [M10, (S)—N-(5-(Tert-Butyl)-2-(Hexan-3-yloxy)Phenyl)-1-(4-Fluoro-2,5-Dimethoxyphenyl)-5-Methyl-1H-1,2,3-Triazole-4-Carboxamide]
15 | > 30000 | > 30000 | > 30 |  |  |  |  |  | > 30 |  | COc1ccc(OC)c(-n2nnc(C(=O)Nc3cc(C(C)(C)C)ccc3OCCCCCCCCOc3ccc(C(C)(C)C)cc3NC(=O)c3nnn(-c4cc(OC)ccc4OC)c3C)c2C)c1 [B20]
16 | 11900 ± 2270 | 7090 ± 1370 | > 30 |  |  | 104 | 130 |  | > 30 |  | COc1ccc(OC)c(-n2nnc(C(=O)Nc3cc(NCCN)cc(C(C)(C)C)c3)c2C)c1 [D10]
17 | 240 | 66 ± 14 | > 30 | 67 | 0.044 ± 0.016 | 102 | 93 |  |  |  | COc1ccc(Cl)cc1-n1nnc(C(=O)Nc2cc(C(C)(C)C)cc(C(C)(C)C)c2)c1C [F1]
18 | 15 | 1.6 | > 30 | 91 | 0.0075 ± 0.0011 | 105 | 111 |  |  |  | CCC(CC)Oc1ccc(C(C)(C)C)cc1NC(=O)c1nnn(-c2cc(OC)ccc2OC)c1C [B31]
19 | > 30000 | 10300 ± 3250 | > 30 |  |  |  | 80 |  | > 30 |  | COc1ccc(OC)c(-n2nnc(C(=O)Nc3ccnc(C(C)(C)C)c3)c2C)c1 [A7]

Row | SMILES | IC50 (hPXR [1]) [nM] | IC50 (hPXR [2]) [nM] | EC50 (hPXR [3]) [µM] | inhibition at 10 µM (hPXR [4]) [%] | IC50 (hPXR [4]; [5]) [µM] | inhibition at 10 µM (hPXR [1]) [%] | inhibition at 10 µM (hPXR [2]) [%] | Agonist (% activation at 10 μM) (hPXR [3]) | IC50 (hPXR [4]) [µM] | EC50 (hPXR [3]; read-out: Agonist (EC50/μM), cell-based hPXR agonistic assay) [µM]
20 | CCC(C)Oc1ccc(C(C)(C)C)cc1NC(=O)c1nnn(-c2cc(C)ccc2OC)c1C (stereo not drawn) [G12] | 9.4 | > 30000 | 0.018 | 92 | 0.0076 ± 0.0031 | 73 |  | (17 ± 1)% |  | 
21 | COc1ccc(OC)c(-n2nnc(C(=O)Nc3cc(OCCCCI)cc(C(C)(C)C)c3)c2C)c1 [D17, N-(3-(tert-butyl)-5-(4-iodobutoxy)phenyl)-1-(2,5-dimethoxyphenyl)-5-methyl-1H-1,2,3-triazole-4-carboxamide] | 66 ± 7 | 8.8 ± 3 | > 30 | 50 | 0.18 | 112 | 120 |  |  | 
22 | CCC(C)Oc1ccc(C(C)(C)C)cc1NC(=O)c1nnn(-c2cc(Cl)ccc2OC)c1C (stereo not drawn) [F10] | 19 | > 30000 | 0.36 ± 0.16 | 90 | 0.0076 ± 0.0011 | 79 |  | (9 ± 1)% |  | 
